In the NIST ThermoML archive (doi:10.1021/je025610o):

Assay: xn = mol fraction of the nth substance listed
Conditions: 100 kPa, Liquid; for thermal conductivity: Hot wire method

OCCOCCO [diethylene glycol] + O
Conditions	mass density [kg/m3]	thermal conductivity [W/m/K]	viscosity [mPa·s]
293.45 K, x1 = 0.5	1111	–	22
294.05 K, x1 = 0.75	1115	–	30.4
294.25 K, x1 = 0.25	1095	–	9.79
294.4 K, x1 = 0.25	–	0.291	–
295.9 K, x1 = 0.5	–	0.235	–
296.4 K, x1 = 0.75	–	0.209	–
312.95 K, x1 = 0.5	1097	–	9.64
313.05 K, x1 = 0.25	1081	–	4.88
313.05 K, x1 = 0.75	1101	–	13.3
322.1 K, x1 = 0.5	–	0.244	–
323.4 K, x1 = 0.25	–	0.31	–
323.8 K, x1 = 0.75	–	0.213	–
332.95 K, x1 = 0.5	1082	–	5.03
333.05 K, x1 = 0.25	1066	–	2.76
333.05 K, x1 = 0.75	1087	–	6.75
347.4 K, x1 = 0.25	–	0.315	–
347.8 K, x1 = 0.5	–	0.249	–
349.6 K, x1 = 0.75	–	0.217	–
352.95 K, x1 = 0.5	1066	–	3.01
353.05 K, x1 = 0.75	1071	–	3.9
353.15 K, x1 = 0.25	1051	–	1.76
371.9 K, x1 = 0.5	–	0.258	–
373 K, x1 = 0.25	–	0.322	–
373.2 K, x1 = 0.75	–	0.219	–
380.05 K, x1 = 0.5	1043	–	–
381.45 K, x1 = 0.25	1027	–	–
382.55 K, x1 = 0.5	–	–	1.66
382.55 K, x1 = 0.75	1048	–	–
384.95 K, x1 = 0.25	–	–	1.03
385.05 K, x1 = 0.75	–	–	2
390.25 K, x1 = 0.5	1035	–	–
390.95 K, x1 = 0.75	1042	–	–
392.75 K, x1 = 0.25	1017	–	–
394.25 K, x1 = 0.5	–	–	1.37
394.95 K, x1 = 0.75	–	–	1.72
395.6 K, x1 = 0.5	–	0.257	–
396 K, x1 = 0.25	–	0.325	–
396.75 K, x1 = 0.25	–	–	0.912
396.9 K, x1 = 0.75	–	0.217	–
405.35 K, x1 = 0.5	1023	–	–
406.95 K, x1 = 0.75	1029	–	–
409.25 K, x1 = 0.25	1004	–	–
409.35 K, x1 = 0.5	–	–	1.12
410.95 K, x1 = 0.75	–	–	1.35
413.25 K, x1 = 0.25	–	–	0.743
421.5 K, x1 = 0.25	–	0.33	–
421.6 K, x1 = 0.75	–	0.222	–
422 K, x1 = 0.5	–	0.256	–
424.25 K, x1 = 0.5	1006	–	–
424.65 K, x1 = 0.75	1014	–	–
426.35 K, x1 = 0.25	987.6	–	–
428.25 K, x1 = 0.5	–	–	0.865
428.65 K, x1 = 0.75	–	–	1.05
430.35 K, x1 = 0.25	–	–	0.61
441.65 K, x1 = 0.25	973.3	–	–
443.05 K, x1 = 0.5	988.2	–	–
443.65 K, x1 = 0.75	996.3	–	–
445.65 K, x1 = 0.25	–	–	0.521
446.8 K, x1 = 0.75	–	0.213	–
447 K, x1 = 0.5	–	0.253	–
447.05 K, x1 = 0.5	–	–	0.707
447.5 K, x1 = 0.25	–	0.328	–
447.65 K, x1 = 0.75	–	–	0.838
